Holding throughout (assay): Microbroth dilution MIC
Type in all cases: cell-based

In assay [1] the test system is Enterococcus Faecalia CLB 21560. On the procedure: (§1) Cation-Adjusted Mueller Hinton Broth (BBL): Prepared according to manufacturer's instructions (22 gms dissolved in 1000 mL water; autoclaved 22 minutes). Stored refrigerated. Filter-sterilized before use using a Coming 0.45 Tm cellulose acetate filter.
(§2) The type of strains listed above can be obtained from publicly available sources. The strain of Haemophilus influenzae used in to assay the compound of this invention is a mouse pathogen used for in vivo testing at Merck. The Escherichia coli strain used in to assay the compound of this invention is a cell wall permeable strain. The Candida albicans strain is used as a control. These culture are maintained as frozen stocks at −80° C. in a) Microbank beads; b) 2× Skim Milk; or c) in 2× X Trypticase Soy Broth+15% glycerol/50% horse serum (Haemophilus and Streptococcus pneumoniae).
(§3) Selected isolates are sub-cultured onto either Chocolate Agar Plates (Haemophilus influenzae), onto Trypticase Soy+5% Sheep Blood Agar Plates (Streptococcus pneumoniae, Staphylococcus aureus, Escherichia coli, Enterococcus, Bacillus) or onto Sabouraud Dextrose Agar (Candida) and incubated at 35° C. Haemophilus and Streptococcus pneumoniae are incubated in 5% CO2; all other isolates are incubated in ambient air. Isolates are sub-cultured 2× before assay.
(§4) Colonies are selected from plates and used to prepare an inoculum equivalent to a 0.5 McFarland standard in Trypticase Soy Broth. An inoculum with a density equivalent to a 1.0 McFarland standard is prepared for Streptococcus pneumoniae. The inoculum density for all cultures is ˜10^8 CFU/mL in TSB. This TSB inoculum is diluted 1:10 in sterile saline (4 mL inoculum+36 mL saline; equivalent to ˜10^7 CFU/mL) and kept on ice until used to inoculate microtiter plates.
(§5) All wells of 96-well microtiter plates (Dynex) are filled with 100 TL media. Haemophilus test media plates are prepared to test Haemophilus influenzae; Cation-Adjusted Mueller Hinton+5% Lysed Horse Blood plates are prepared to test Streptococcus pneumoniae; Cation-Adjusted Mueller Hinton Broth plates are prepared to test Enterococcus, Staphylococcus aureus, Escherichia coli and Bacillus subtilis. RPMI 1640 is used to test Candida. The MICs against S. aureus Smith are determined in Cation-adjusted Mueller Hinton and in Cation-Adjusted Mueller Hinton+50% Human Serum, to determine if the compound is inactivated by some component in serum (indicated by an increase in the MIC). Filled plates are wrapped in plastic bags (to minimize evaporation), stored frozen and thawed before use.
(§6) The compounds are prepared on a weight basis. Compounds are prepared to 2-10 mg/mL in 100% DMSO, then diluted to 1 mg/mL in a 1:1 dilution of DMSO/233 CAMHB (final concentration=50% DMSO/50% CAMHB). Compounds are serially diluted 1:1 in 50% DMSO/50% CAMHB in BD Biosciences Deep Well Polypropylene 96 well plates (starting concentration 1-5 mg/mL).
(§7) Using a Finn Automated Multichannel Pipette, (0.5-10 μL volume) 6.4 TLs of antimicrobial working solutions are added to wells of filled microtiter plates (concentration of antimicrobial in first well=512-64 microg/mL; concentration of DMSO=3.2%). Antimicrobials are added in this manner to keep constant the amount of DMSO in each well (to keep compounds solubilized and to account for the possibility of non-specific killing by the DMSO. The last row contains a growth control of 3.2% DMSO.
(§8) Controls (Penicillin G and chloramphenicol) are run with each assay. The controls are prepared in the same manner as described for the compounds of the invention. Ertapenem is included as a control for the serum protein binding assay.
(§9) Plates are incubated at 35° C. in ambient air. An uninoculated plate is also incubated as a sterility check. Results are recorded after 22-24-hours' incubation. Plates were read to no growth.

Assay [2] concerns Staphylococcus Aureus CL 5814. Conditions: Staphylococcus Aureus strain CL 5814. On the procedure: as §1, §2, §3, §4, §5, §6, §7, §8, §9
The test system of assay [3] is Staphylococcus Aureus CL 8260. As to conditions: Staphylococcus Aureus strain CL 8260. How it is done:
as §1, §2, §3, §4, §5, §6, §7, §8, §9

Assay [4] concerns Staphylococcus Aureus MB 2865. Conditions: Staphylococcus Aureus strain MB 2865. On the procedure:
as §1, §2, §3, §4, §5, §6, §7, §8, §9

Among the data in patent publication US20080132500A1, “Antibiotic compounds” (priority 2006, published 2008) are MIC values, retold here.

Values after ≈ are worked out from the molar mass of the structure shown. Read-outs that look alike come from different tables or passages of the source.

For orientation: MIC means the least concentration at which growth counts as inhibited.

`CO/C(C)=C1/NC(=O)[C@H]([C@@H](C)O)NC(=O)c2csc(n2)-c2cc(O)c(-c3nc(CNCCO)cs3)nc2-c2csc(n2)[C@@H]2COC(=O)c3c4c5c(cccc5n3O)COC(=O)[C@@H](O[C@H]3C[C@](C)(O)[C@H](N(C)C)[C@H](C)O3)[C@@H](OC4)[C@H](NC(=O)c3csc1n3)c1nc(cs1)C(=O)N2` [Compound B]: the MIC in assay [1] (Enterococcus Faecalia strain CLB 21560, read-out: MIC) is 0.06 µg/mL (≈ 0.0429 µM); in assay [2], 0.0075 µg/mL (≈ 0.00536 µM); in assay [3] it was 0.03 µg/mL (≈ 0.0215 µM); in assay [4], 0.03 µg/mL (≈ 0.0215 µM).
As to `CO/C(C)=C1/NC(=O)[C@H]([C@@H](C)O)NC(=O)c2csc(n2)-c2cc(O)c(-c3nc(CNC(=O)CN4CCOCC4)cs3)nc2-c2csc(n2)[C@@H]2COC(=O)c3c4c5c(cccc5n3O)COC(=O)[C@@H](O[C@H]3C[C@](C)(O)[C@H](N(C)C)[C@H](C)O3)[C@@H](OC4)[C@H](NC(=O)c3csc1n3)c1nc(cs1)C(=O)N2` [Compound A], the MIC is 0.015 µg/mL (≈ 0.0101 µM) in assay [1] (Enterococcus), 0.0038 µg/mL (≈ 0.00256 µM) in assay [2], 0.015 µg/mL (≈ 0.0101 µM) in assay [3] and 0.0075 µg/mL (≈ 0.00506 µM) in assay [4].
